Measurements as given in patent publication US9283222B2 (priority 2006, dated 2016).

Biological target: Recombinant Human Poly(ADP-Ribose) Polymerase (PARP), PARP-1 (Homo sapiens (Human), UniProt P09874)
Conditions: read-out: PARP-1 (Ki); Table 1; text calls the values EC50s

Recombinant Human Poly(ADP-Ribose) Polymerase (PARP), PARP-1, sequence (P09874 whole entry): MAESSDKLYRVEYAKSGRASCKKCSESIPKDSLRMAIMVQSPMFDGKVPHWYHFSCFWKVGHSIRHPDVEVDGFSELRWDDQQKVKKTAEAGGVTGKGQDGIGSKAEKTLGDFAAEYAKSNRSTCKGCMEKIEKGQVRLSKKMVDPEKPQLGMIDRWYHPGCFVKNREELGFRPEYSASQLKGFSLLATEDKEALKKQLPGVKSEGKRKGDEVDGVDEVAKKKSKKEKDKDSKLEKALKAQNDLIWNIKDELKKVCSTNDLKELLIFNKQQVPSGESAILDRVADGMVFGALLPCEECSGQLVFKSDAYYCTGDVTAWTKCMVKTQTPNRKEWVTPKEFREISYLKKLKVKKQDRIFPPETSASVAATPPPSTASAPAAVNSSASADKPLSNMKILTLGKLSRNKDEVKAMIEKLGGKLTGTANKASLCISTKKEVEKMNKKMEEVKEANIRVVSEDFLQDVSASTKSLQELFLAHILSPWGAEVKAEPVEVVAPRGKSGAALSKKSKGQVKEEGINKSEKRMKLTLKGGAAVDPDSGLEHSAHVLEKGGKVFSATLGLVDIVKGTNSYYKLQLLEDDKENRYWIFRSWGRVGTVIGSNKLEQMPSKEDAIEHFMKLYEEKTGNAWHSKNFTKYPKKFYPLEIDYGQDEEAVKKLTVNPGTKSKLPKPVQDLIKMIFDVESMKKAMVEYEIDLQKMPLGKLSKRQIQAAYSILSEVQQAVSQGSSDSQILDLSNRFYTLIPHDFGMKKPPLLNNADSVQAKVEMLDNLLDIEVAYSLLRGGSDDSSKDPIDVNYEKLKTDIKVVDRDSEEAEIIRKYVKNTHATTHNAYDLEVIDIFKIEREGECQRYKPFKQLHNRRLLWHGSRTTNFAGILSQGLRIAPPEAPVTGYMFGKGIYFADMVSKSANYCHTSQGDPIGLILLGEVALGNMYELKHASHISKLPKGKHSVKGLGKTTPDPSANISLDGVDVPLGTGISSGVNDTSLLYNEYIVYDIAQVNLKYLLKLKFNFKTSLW

| Structure (SMILES) | Ki [nM] |
| --- | --- |
| O=C(Nc1cccc(Cc2n[nH]c(=O)c3c2CCCC3)c1)C1CNC1 [Example 113, N-(3-((4-oxo-3,4,5,6,7,8-hexahydrophthalazin-1-yl)methyl)phenyl)azetidine-3-carboxamide] | 6 |
| COc1ccc(C(=O)CCC(=O)Nc2cc(Cc3n[nH]c(=O)c4c3CCCC4)ccc2F)cc1 [Example 289, N-(2-fluoro-5-((4-oxo-3,4,5,6,7,8-hexahydrophthalazin-1-yl)methyl)phenyl)-4-(4-methoxyphenyl)-4-oxobutanamide] | 0.7 |
| CN(C(=O)c1cc(Cc2n[nH]c(=O)c3c2NCCC3)ccc1F)C1CCNCC1 [Example 706, 2-fluoro-N-methyl-5-[(5-oxo-1,2,3,4,5,6-hexahydropyrido[2,3-d]pyridazin-8-yl)methyl]-N-piperidin-4-ylbenzamide] | 5 |
| O=C(NCC(=O)N1CCCCC1)c1cc(Cc2n[nH]c(=O)c3c2NCCC3)ccc1F [Example 487, 2-fluoro-5-((5-oxo-1,2,3,4,5,6-hexahydropyrido(3,2-d)pyridazin-8-yl)methyl)-N-(2-oxo-2-(piperidin-1-yl)ethyl)benzamide] | 10 |
| CN1CCCN(C(=O)c2cc(Cc3n[nH]c(=O)c4c3CCCC4)ccc2F)CC1 [Example 502, 4-{4-fluoro-3-[(4-methyl-1,4-diazepan-1-yl)carbonyl]benzyl}-5,6,7,8-tetrahydrophthalazin-1(2H)-one] | 1.5 |
| CCN(CC)C(=O)N1CCN(C(=O)c2cc(Cc3n[nH]c(=O)c4c3NCCC4)ccc2F)CC1 [Example 557, N,N-diethyl-4-{2-fluoro-5-[(5-oxo-1,2,3,4,5,6-hexahydropyrido[2,3-d]pyridazin-8-yl)methyl]benzoyl}piperazine-1-carboxamide] | 1.1 |
| O=C(c1cc(Cc2n[nH]c(=O)c3c2CCCC3)ccc1F)N1CCN(c2cccc(F)c2)CC1 [Example 527, 4-(4-fluoro-3-{[4-(3-fluorophenyl)piperazin-1-yl]carbonyl}benzyl)-5,6,7,8-tetrahydrophthalazin-1(2H)-one] | 3 |
| O=C(Cc1cccc(Oc2ccccc2)c1)Nc1cccc(Cc2n[nH]c(=O)c3c2CCCC3)c1 [Example 176, N-(3-((4-oxo-3,4,5,6,7,8-hexahydrophthalazin-1-yl)methyl)phenyl)-2-(3-phenoxyphenyl)acetamide] | 43 |
| Cc1ccc(CCNC(=O)c2cccc(Cc3n[nH]c(=O)c4c3CCCC4)c2)cc1C [Example 397] | 50 |
| O=C(NCCc1ccccc1Cl)c1cccc(Cc2n[nH]c(=O)c3c2CCCC3)c1 [Example 388, N-(2-(2-chlorophenyl)ethyl)-3-((4-oxo-3,4,5,6,7,8-hexahydrophthalazin-1-yl)methyl)benzamide] | 88 |
| COc1cc(OC)c(NC(=O)c2cccc(Cc3n[nH]c(=O)c4c3CCCC4)c2)cc1Cl [Example 359, N-(5-chloro-2,4-dimethoxyphenyl)-3-((4-oxo-3,4,5,6,7,8-hexahydrophthalazin-1-yl)methyl)benzamide] | 151 |
| O=C(c1cccc(-c2cc(CCc3n[nH]c(=O)c4c3CCCC4)ccc2F)c1)N1CCOCC1 [Example 264, 4-(2-(6-fluoro-3′-(morpholin-4-ylcarbonyl)-1,1′-biphenyl-3-yl)ethyl)-5,6,7,8-tetrahydrophthalazin-1(2H)-one] | 662 |
| O=C(NCCN1CCCC1)c1cccc(Cc2n[nH]c(=O)c3c2CCCC3)c1 [Example 52, 3-((4-oxo-3,4,5,6,7,8-hexahydrophthalazin-1-yl)methyl)-N-(2-pyrrolidin-1-ylethyl)benzamide] | 13 |
| CC(C)(C)c1ccc(NC(=O)c2cccc(Cc3n[nH]c(=O)c4c3CCCC4)c2)cc1 [Example 336, N-(4-tert-butylphenyl)-3-((4-oxo-3,4,5,6,7,8-hexahydrophthalazin-1-yl)methyl)benzamide] | 363 |
| CCN(CCN)C(=O)c1cc(Cc2n[nH]c(=O)c3c2CCCC3)ccc1F [Example 719, N-(2-aminoethyl)-N-ethyl-2-fluoro-5-[(4-oxo-3,4,5,6,7,8-hexahydrophthalazin-1-yl)methyl]benzamide] | 7 |
| CN(C(=O)c1cc(Cc2n[nH]c(=O)c3c2NCCC3)ccc1F)C1CCN(C(=O)c2cscn2)CC1 [Example 717, 2-fluoro-N-methyl-5-[(5-oxo-1,2,3,4,5,6-hexahydropyrido[2,3-d]pyridazin-8-yl)methyl]-N-[1-(1,3-thiazol-4-ylcarbonyl)piperidin-4-yl]benzamide] | 4 |
| CC(=O)N[C@@H](CC(C)C)C(=O)Nc1cccc(Cc2n[nH]c(=O)c3c2CCCC3)c1 [Example 157] | 124 |
| COc1ccc(N2CCN(C(=O)c3cc(Cc4n[nH]c(=O)c5c4CCCC5)ccc3F)CC2)cc1 [Example 623, 4-(4-fluoro-3-{[4-(4-methoxyphenyl)piperazin-1-yl]carbonyl}benzyl)-5,6,7,8-tetrahydrophthalazin-1(2H)-one] | 3 |
| O=C(c1ccco1)N1CCCN(C(=O)c2cc(Cc3n[nH]c(=O)c4c3NCCC4)ccc2F)CC1 [Example 694, 8-(4-fluoro-3-{[4-(2-furoyl)-1,4-diazepan-1-yl]carbonyl}benzyl)-2,3,4,6-tetrahydropyrido[2,3-d]pyridazin-5(1H)-one] | 1.7 |
| O=C(c1cccc(Cc2n[nH]c(=O)c3c2CCCC3)c1)N1CCC(n2c(=O)[nH]c3ccccc32)CC1 [Example 434, 4-(3-((4-(2-oxo-2,3-dihydro-1H-benzimidazol-1-yl)piperidin-1-yl)carbonyl)benzyl)-5,6,7,8-tetrahydrophthalazin-1(2H)-one] | 6 |
| COC(=O)c1ccc(Cc2n[nH]c(=O)c3c2CCCC3)s1 [Example 92, methyl 5-((4-oxo-3,4,5,6,7,8-hexahydrophthalazin-1-yl)methyl)thiophene-2-carboxylate] | 167 |
| O=C(c1cc(Cc2n[nH]c(=O)c3c2NCCC3)ccc1F)N1CCN(c2ccc(F)cc2)CC1 [Example 548, 8-(4-fluoro-3-{[4-(4-fluorophenyl)piperazin-1-yl]carbonyl}benzyl)-2,3,4,6-tetrahydropyrido[2,3-d]pyridazin-5(1H)-one] | 2 |
| O=C(CCc1ccccc1)Nc1cccc(Cc2n[nH]c(=O)c3c2CCCC3)c1 [Example 143, N-(3-((4-oxo-3,4,5,6,7,8-hexahydrophthalazin-1-yl)methyl)phenyl)-3-phenylpropanamide] | 78 |
| O=c1[nH]nc(Cc2cccc(-c3cccc(CNC4CCCC4)c3)c2)c2c1CCCC2 [Example 128, 4-((3′-((cyclopentylamino)methyl)-1,1′-biphenyl-3-yl)methyl)-5,6,7,8-tetrahydrophthalazin-1(2H)-one] | 43 |
| O=C(Nc1cccc(Cc2n[nH]c(=O)c3c2CCCC3)c1)c1ccno1 [Example 208, N-(3-((4-oxo-3,4,5,6,7,8-hexahydrophthalazin-1-yl)methyl)phenyl)isoxazole-5-carboxamide] | 22 |
| O=CN1CCN(C(=O)c2cccc(Cc3n[nH]c(=O)c4c3CCCC4)c2)CC1 [Example 437, 4-(3-((4-oxo-3,4,5,6,7,8-hexahydrophthalazin-1-yl)methyl)benzoyl)piperazine-1-carbaldehyde] | 4 |
| CC(=O)N1CCC(C(=O)Nc2cccc(Cc3n[nH]c(=O)c4c3CCCC4)c2)CC1 [Example 155, 1-acetyl-N-(3-((4-oxo-3,4,5,6,7,8-hexahydrophthalazin-1-yl)methyl)phenyl)piperidine-4-carboxamide] | 126 |
